Assay results taken from US20080095863A1, “2-PYRROLIDONE DERIVATIVES FOR PRESERVATION OF OPHTHALMIC, OTIC AND NASAL COMPOSITIONS” (Alcon Manufacturing Ltd., priority 2006, published 2008).
Entries after “also recorded” stand apart in the source; their conditions may differ.

Legend:
[1] = test system: Aspergillus niger ATCC 16404; assay: Antimicrobial preservative effectiveness organism challenge test (USP 24 / Ph. Eur. 5.0); assay type: cell-based; settings: A. niger, 7 days; 0.05 w/v % in Table 2 formulation, pH 7.5
Description: (§1) Antimicrobial preservative effectiveness as set forth by the examples infra was determined using an organism challenge test according to the methods described in the United States Pharmacopoeia 24 (USP) for category 1A products, and in European Pharmacopoeia 5.0 (Ph. Eur.) for parenteral and ophthalmic preparations. […] The samples were then pulled at specified intervals to determine if the antimicrobial preservative system was capable of killing or inhibiting the propagation of organisms purposely introduced into the formulation. The rate or level of antimicrobial activity determines compliance with the USP and/or Ph. Eur. preservative efficacy standards for the cited categories of preparations.
(§2) Relative to fungi, the USP standards require that the compositions maintain stasis (i.e., no growth) relative to the population of the initial inoculum over the entire 28 day test period. A category 1A product is an injection, or other parenteral including emulsions, otic, sterile nasal products and ophthalmic products made with aqueous bases or vehicles.
(§3) The margin of error in calculating microorganism populations is generally accepted to be +/−0.5 logs. Accordingly, the term “stasis”, as utilized herein relative to the above-discussed USP standards, means that the initial population cannot increase by more than 0.5 log orders, relative to the initial population.
(§4) As cited by Table 1, the Ph. […] Regarding fungi, the Ph.

[2] = test system: Staphylococcus aureus ATCC 6538; assay: as above; assay type: cell-based; settings: S. aureus, pH 7.5
Description: as §1, §2, §3, §4

[3] = test system: Escherichia coli ATCC 8739; assay: as above; assay type: cell-based; settings: E. coli, 0.05 w/v % in Table 2 formulation, pH 7.5
Description: as §1, §2, §3, §4

[4] = test system: Pseudomonas aeruginosa ATCC 9027; assay: as above; assay type: cell-based; settings: P. aeruginosa, 0.05 w/v % in Table 2 formulation, pH 7.5
Description: as §1, §2, §3, §4

[5] = test system: Candida albicans ATCC 10231; assay: as above; assay type: cell-based
Description: as §1, §2, §3, §4

[6] = test system: S. aureus, P. aeruginosa, E. coli, C. albicans and A. niger; assay: Compliance with USP and/or Ph. Eur. preservative efficacy standards (Table 1); assay type: cell-based; settings: for meeting European Pharmacopoeia 5.0 (Ph. Eur. B) standards as sole preservative: without any other preservative
Description: as §1, §2, §3, §4

[7] = cited from earlier work

Structure (SMILES) | Log Order Reductions [1] [log order] | Log Order Reductions ([2]; 6 hours, 0.05 w/v % in Table 2 formulation (propylene glycol 1.8, phosphate)) [log order] | Log Order Reductions ([2]; 24 hours, 0.05 w/v % in Table 2 formulation) [log order] | Log Order Reductions ([2]; 7 days, 0.05 w/v % in Table 2 formulation) [log order] | Log Order Reductions ([3]; 6 hours) [log order] | Log Order Reductions ([3]; 24 hours) [log order] | Log Order Reductions ([3]; 7 days) [log order] | Log Order Reductions ([4]; 6 hours) [log order] | Log Order Reductions ([4]; 24 hours) [log order] | Log Order Reductions ([4]; 7 days) [log order] | kill of Candida albicans ([5]; 0.05% composition, in 7 days) | Log Order Reductions ([5]; C. albicans, 7 days, 0.05 w/v % in Table 2 formulation, pH 7.5) [log order] | kill of both gram-negative and gram-positive bacteria ([6]; 0.05% composition, in six hours) | meeting European Pharmacopoeia 5.0 (Ph. Eur. B) standards as sole preservative [6] | meeting United States Pharmacopoeia 24 standards as sole preservative ([6]; without any other preservative or preservative aid, isotonic pH 7.5 formulation) | soluble in water up to [7] | solubility limited in aqueous solutions to ([7]; aqueous solutions, unless enhanced by another surfactant) [%]
CCCCCCCCN1CCCC1=O [N-Octyl-2-Pyrrolidone, N-octyl-2-pyrrolidone] | 0.7 | 4.9 | 4.9 | 4.9 | 5.0 | 5.0 | 5.0 | 4.9 | 4.9 | 4.9 | essentially complete kill | 4.8 | essentially complete kill | provided sufficient preservation to comply; also recorded: effective as a sole preservative | provided sufficient preservation to comply | up to 0.124% | 
CCCCCCCCCCCCN1CCCC1=O [N-dodecyl-2-pyrrolidone] |  |  |  |  |  |  |  |  |  |  |  |  |  | requires a second anti-microbial agent; also recorded: insufficient as a sole agent for preservation |  | up to 0.002% | ≤ 0.002
